Data on 35 compounds can be found in patent publication US11319306B2, “Compositions and methods for treating neurodegenerative diseases” (Azevan Pharmaceuticals, Inc., priority 2014, dated 2022).

For the test, the target named is T1, human V1a receptor (Homo sapiens, UniProt P37288).
T1 construct: host or cells: CHO cells (hV1a cell line)
Description: Human vasopressin V1a receptor binding assay (3H-AVP competition, hV1a CHO cells). The settings on record: 3H-AVP competition, CHO cells expressing human V1a; for pIC50: read-out: V1a Binding Affinity IC50; for pKi: read-out: V1a Ki. As to the method: Human vasopression V1a receptor binding assay. A cell line expressing the human V1a receptor in CHO cells (henceforth referred to as the hV1a cell line) was obtained from Dr. Michael Brownstein, NIMH, Bethesda, Md., USA. The hV1a cDNA sequence is described by Thibonnier et al., Journal of Biological Chemistry, 269, 3304-3310 (1994), and the expression method was the same as described by Morel et al. (1992). The hV1a cell line was grown in alpha-MEM with 10% fetal bovine serum and 250 ug/ml G418 (Gibco, Grand Island, N.Y., USA). For competitive binding assay, hV1a cells were plated into 6-well culture plate at 1:10 dilution from a confluency flask, and maintained in culture for at least two days. Culture medium was then removed, cells were washed with 2 ml binding buffer (25 mM Hepes, 0.25% BSA, 1×DMEM, PH=7.0). To each well, 990 μl binding buffer containing InM 3H-AVP was added, and followed by 10 μl series diluted Example compounds dissolved in DMSO. […] 100 nM cold AVP (Sigma) was used to assess non-specific binding. Cells were incubated for 45 minutes at 37° C., assay mixture was removed and each well was washed three times with PBS (pH=7.4). 1 ml 2% SDS was added per well and plates were let sit for 30 minutes. The whole content in a well was transferred to a scintillation vial. Each well was rinsed with 0.5 ml PBS which was then added to the corresponding vial. Scintillation fluid (Ecoscint, National Diagnostics, Atlanta, Ga.) was then added at 3 ml per vial. Samples were counted in a liquid scintillation counter (Beckman LS3801). IC50 values were calculated by Prism Curve fitting software.
All of the alkanedioic esters and amides exemplified in the foregoing examples dissolved in DMSO were tested in this assay. Binding curves were generated according to methods described by Thibonnier et al. (1994). [^3H]-AVP was added to the hV1a cell cultures followed by 10-fold dilutions of each test compound.

pIC50, pKi: −log10 of the molar value.

T1 sequence (P37288 whole entry): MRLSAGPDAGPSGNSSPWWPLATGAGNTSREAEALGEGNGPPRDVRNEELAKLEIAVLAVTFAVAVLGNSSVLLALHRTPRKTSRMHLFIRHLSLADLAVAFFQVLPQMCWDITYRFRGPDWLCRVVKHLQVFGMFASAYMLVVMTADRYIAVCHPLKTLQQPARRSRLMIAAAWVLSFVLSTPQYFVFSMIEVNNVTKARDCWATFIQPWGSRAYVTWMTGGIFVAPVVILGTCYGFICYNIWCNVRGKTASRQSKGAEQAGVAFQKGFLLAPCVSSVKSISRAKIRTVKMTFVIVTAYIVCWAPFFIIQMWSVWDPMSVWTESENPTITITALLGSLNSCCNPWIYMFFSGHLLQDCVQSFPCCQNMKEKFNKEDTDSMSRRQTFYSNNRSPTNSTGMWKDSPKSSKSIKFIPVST

For orientation: pIC50 means the IC50 on a negative log10 scale, so that one unit is a factor of ten. Broadly, the pKi is −log10 of the Ki, conventionally taken in molar units. As to `O=C(NCc1cccc(C(F)(F)F)c1)C(CCC(=O)N1CCN(C2CCCCC2)CC1)N1C(=O)C(N2C(=O)OCC2c2ccccc2)C1C=Cc1ccccc1` (stereo not shown) [Example 139], the pIC50 is 8.02 and the pKi is 8.23.
With `O=C(NCc1cc(F)cc(F)c1)[C@H](CCC(=O)N1CCN(C2CCCCC2)CC1)N1C(=O)[C@@H](N2C(=O)OC[C@@H]2c2ccccc2)[C@H]1/C=C/c1ccccc1` [Example 185], the pKi was 9.09.
With `COc1cccc(C(C)NC(=O)C(CCC(=O)N2CCN(C3CCCCC3)CC2)N2C(=O)C(N3C(=O)OCC3c3ccccc3)C2C=Cc2ccccc2)c1` (stereo not shown) [Example 203], the pIC50 is 8.61 and the pKi is 8.82.
Take `CCN1CCC[C@H]1CNC(=O)CC[C@@H](C(=O)N[C@@H]1CCCc2ccccc21)N1C(=O)[C@@H](N2C(=O)OC[C@@H]2c2ccccc2)[C@H]1/C=C/c1ccccc1` [Example 221AI]: the negative-log IC50 (pIC50) was approximately 7.30.
Regarding `O=C(NC1(c2cccc(F)c2)CCCC1)C(CCC(=O)N1CCN(C2CCCCC2)CC1)N1C(=O)C(N2C(=O)OCC2c2ccccc2)C1C=Cc1ccccc1` (stereo not shown) [Example 221AM], the pKi is 8.57.
With `CC(C)(C)OC(=O)NC1CCN(C2CCN(C(=O)CCC(C(=O)NC3(c4ccccc4)CCCC3)N3C(=O)C(N4C(=O)OCC4c4ccccc4)C3C=Cc3ccccc3)CC2)C1` (stereo not shown) [Example 221AX], the negative-log IC50 (pIC50) is 7.08 and the pKi was 7.29.
Regarding `Cc1cccc(CN(C)C(=O)C(CCC(=O)N2CCN(C3CCCCC3)CC2)N2C(=O)C(N3C(=O)OCC3c3ccccc3)C2C=Cc2ccccc2)c1` (stereo not shown) [Example 221A], the pIC50 is 8.57 and the pKi was 8.78.
Turning to `CCN1CCN(C(=O)CCC(C(=O)NC2CCCc3ccccc32)N2C(=O)C(N3C(=O)OCC3c3ccccc3)C2C=Cc2ccccc2)CC1` (stereo not shown) [Example 221BD], the pIC50 is 8.57 and the negative logarithm of the Ki (pKi) is 8.78.
In the case of `O=C(NC1CCCc2ccccc21)C(CCC(=O)N1CCN(CCCO)CC1)N1C(=O)C(N2C(=O)OCC2c2ccccc2)C1C=Cc1ccccc1` (stereo not shown) [Example 221BI], the pIC50 was 7.25 and the pKi was 7.46.
The like results for `CN(Cc1cccc(Cl)c1Cl)C(=O)C(CCC(=O)N1CCN(C2CCCCC2)CC1)N1C(=O)C(N2C(=O)OCC2c2ccccc2)C1C=Cc1ccccc1` (stereo not shown) [Example 221B] were, in that order, 9.23 and 9.44.
As for `CN(Cc1cccc(Cl)c1)C(=O)C(CCC(=O)N1CCN(C2CCCCC2)CC1)N1C(=O)C(N2C(=O)OCC2c2ccccc2)C1C=Cc1ccccc1` (stereo not shown) [Example 221C], the pIC50 was 8.52 and the pKi is 8.74.
In the same order, the values of `CN(Cc1cccc(Br)c1)C(=O)C(CCC(=O)N1CCN(C2CCCCC2)CC1)N1C(=O)C(N2C(=O)OCC2c2ccccc2)C1C=Cc1ccccc1` (stereo not shown) [Example 221D] are 8.62 and 8.83.
In the same order, the values of `CN(Cc1cc(Cl)cc(Cl)c1)C(=O)C(CCC(=O)N1CCN(C2CCCCC2)CC1)N1C(=O)C(N2C(=O)OCC2c2ccccc2)C1C=Cc1ccccc1` (stereo not shown) [Example 221E] are 7.69 and 7.91.
As for `C[C@@H](NC(=O)[C@H](CCC(=O)N1CCN(C2CCCCC2)CC1)N1C(=O)[C@@H](N2C(=O)OC[C@@H]2c2ccccc2)[C@H]1/C=C/c1ccccc1)c1cccc(C(F)(F)F)c1` [Example 221F], the pIC50 is 8.77 and the pKi was 8.98.
For the compound `O=C(NC1(c2ccccc2)CCCCC1)C(CCC(=O)N1CCN(C2CCCCC2)CC1)N1C(=O)C(N2C(=O)OCC2c2ccccc2)C1C=Cc1ccccc1` (stereo not shown) [Example 221G], the pIC50 was 8.82 and the pKi is 9.03.
As for `O=C(NC1(c2ccccc2F)CCCC1)C(CCC(=O)N1CCN(C2CCCCC2)CC1)N1C(=O)C(N2C(=O)OCC2c2ccccc2)C1C=Cc1ccccc1` (stereo not shown) [Example 221H], the negative logarithm of the IC50 (pIC50) was 8.40 and the pKi is 8.60.
With `O=C(NC1(c2ccc(F)cc2)CCCC1)C(CCC(=O)N1CCN(C2CCCCC2)CC1)N1C(=O)C(N2C(=O)OCC2c2ccccc2)C1C=Cc1ccccc1` (stereo not shown) [Example 221I], the pIC50 was 7.92 and the pKi is 8.13.
With `O=C(CCC(C(=O)N1CCc2ccccc2C1)N1C(=O)C(N2C(=O)OCC2c2ccccc2)C1C=Cc1ccccc1)N1CCN(C2CCCCC2)CC1` (stereo not shown) [Example 221O], the pIC50 was 8.08 and the pKi was 8.29.
With `O=C(NC(CCO)c1ccccc1)C(CCC(=O)N1CCN(C2CCCCC2)CC1)N1C(=O)C(N2C(=O)OCC2c2ccccc2)C1C=Cc1ccccc1` (stereo not shown) [Example 221Q], the negative logarithm of the IC50 (pIC50) was 7.74 and the pKi is 7.95.
Consider `O=C(NC1CCc2ccccc21)C(CCC(=O)N1CCN(C2CCCCC2)CC1)N1C(=O)C(N2C(=O)OCC2c2ccccc2)C1C=Cc1ccccc1` (stereo not shown) [Example 221S], for which the pIC50 is 8.30 and the pKi is 8.51.
The like results for `O=C(CCC(C(=O)NC1CCCc2ccccc21)N1C(=O)C(N2C(=O)OCC2c2ccccc2)C1C=Cc1ccccc1)NCCN1CCCCC1` (stereo not shown) [Example 221X] were, in that order, 7.94 and 8.14.
Regarding `O=C(NC1CCCc2ccccc21)C(CCC(=O)N1CCCC1CN1CCCC1)N1C(=O)C(N2C(=O)OCC2c2ccccc2)C1C=Cc1ccccc1` (stereo not shown) [Example 221Y], the pIC50 is 8.12 and the pKi is 8.33.
As for `O=C(NCc1cccc(C(F)(F)F)c1)C(CCC(=O)N1CCN(C2CCCCC2)CC1)N1C(=O)C(N2C(=O)OCC2c2ccccc2)C1C(Cl)=Cc1ccccc1` (stereo not shown) [Example 226], the pIC50 is 9.31 and the negative-log Ki (pKi) is 9.52.
On to `CCN1CCN(C(=O)CCC(C(=O)NCc2cccc(C(F)(F)F)c2)N2C(=O)C(N3C(=O)OCC3c3ccccc3)C2C(Cl)=Cc2ccccc2)CC1` (stereo not shown) [Example 228], for which the negative-log IC50 (pIC50) was 7.87 and the pKi is 8.08.
Take `CCCCN1CCN(C(=O)CCC(C(=O)NCc2cccc(C(F)(F)F)c2)N2C(=O)C(N3C(=O)OCC3c3ccccc3)C2C(Cl)=Cc2ccccc2)CC1` (stereo not shown) [Example 229]: the pIC50 was 8.82 and the negative logarithm of the Ki (pKi) was 9.03.
For the compound `CCCCN1CCN(C(=O)CCC(C(=O)NCc2cccc(C(F)(F)F)c2)N2C(=O)C(N3C(=O)OCC3c3ccccc3)C2C(Br)=Cc2ccccc2)CC1` (stereo not shown) [Example 230L], the pIC50 is 7.90 and the negative-log Ki (pKi) is 8.11.
As for `CC(C)N1CCN(C(=O)CCC(C(=O)NCc2cccc(C(F)(F)F)c2)N2C(=O)C(N3C(=O)OCC3c3ccccc3)C2C(Cl)=Cc2ccccc2)CC1` (stereo not shown) [Example 230], the negative logarithm of the IC50 (pIC50) is 8.15 and the pKi was 8.36.
The like results for `O=C(C(COCc1ccccc1)N1C(=O)C(N2C(=O)OCC2c2ccccc2)C1C=Cc1ccccc1)N1CCN(C2CCCCC2)CC1` (stereo not shown) [Example 232D] were, in that order, 8.69 and 8.90.
`O=C([C@@H](COCc1ccccc1)N1C(=O)[C@@H](N2C(=O)OC[C@@H]2c2ccccc2)[C@H]1/C=C/c1ccccc1)N1CCC(CN2CCCCC2)CC1` [Example 232E]: the pIC50 was 9.55 and the pKi was 9.77.
In the same order, the values of `O=C(C(COCc1ccccc1)N1C(=O)C(N2C(=O)OCC2c2ccccc2)C1C=Cc1ccccc1)N1CCC(N2CCCCC2)CC1` (stereo not shown) [Example 232] are 8.86 and 9.08.
In the same order, the values of `O=C(C(COCc1ccccc1)N1C(=O)C(N2C(=O)OCC2c2ccccc2)C1C=Cc1ccccc1)N1CCC(CCN2CCCCC2)CC1` (stereo not shown) [Example 233] are 9.25 and 9.47.
In the case of `O=C([C@@H](CSCc1ccccc1)N1C(=O)[C@@H](N2C(=O)OC[C@@H]2c2ccccc2)[C@H]1/C=C/c1ccccc1)N1CCC(CCN2CCCCC2)CC1` [Example 238, (2S)-(Benzylthiomethyl)-2-[3(S)-(4(S)-phenyloxazolidin-2-on-3-yl)-4(R)-(2-styryl)azetidin-2-on-1-yl]acetic acid N-[4-[2-(piperid-1-yl)ethyl]piperidin-1-yl]amide], the pIC50 was 9.96 and the negative logarithm of the Ki (pKi) was 10.15.
In the same order, the values of `CCN1CCN(C(=O)CC[C@@H](C(=O)NC2(c3ccccc3)CCCC2)N2C(=O)[C@@H](N3C(=O)OC[C@@H]3c3ccccc3)[C@H]2/C=C/c2ccccc2)CC1` [Example 239] are 8.18 and 8.40.
In the same order, the values of `O=C(NC1(c2ccccc2)CCCC1)[C@H](CCC(=O)N1CCN(Cc2ccccc2)CC1)N1C(=O)[C@@H](N2C(=O)OC[C@@H]2c2ccccc2)[C@H]1/C=C/c1ccccc1` [Example 240] are 7.60 and 7.81.
With `O=C(N[C@@H]1CCCc2ccccc21)[C@H](CCC(=O)N1CCN(C2CCCC2)CC1)N1C(=O)[C@@H](N2C(=O)OC[C@@H]2c2ccccc2)[C@H]1/C=C/c1ccccc1` [Example 241], the pIC50 is 8.70 and the pKi is 8.91.
